Assay: HILIC, Waters ACQUITY UPLC BEH Amide, 100 × 2.1 mm, 1.7 µm; A: water + 0.125% formic acid + 10 mM ammonium formate; B: 5% water + 95% acetonitrile + 0.125% formic acid + 10 mM ammonium formate; gradient (min/%B) 0/100 2/100 7.7/70 9.5/40 10.25/30 12.75/100 17/100
Settings: stereoisomer not certain

| Compound | LC retention time [min] |
| --- | --- |
| CC(=O)Nc1ccccc1 [Acetanilide] | 1.11 |
| Clc1ccc2c(c1)CCc1cccnc1C2=C1CCNCC1 [Desloratadine] | 4.9 |
| Cc1nnc2n1-c1ccc(Cl)cc1C(c1ccccc1Cl)=NC2 [Triazolam] | 1.3 |
| Nc1ccn(C2OC(COP(=O)(O)O)C(O)C2O)c(=O)n1 (stereo not drawn) [Cytidine-5'-monophosphate] | 9.48 |
| CC(=O)NO [Acetohydroxamic acid] | 2.94 |
| Nc1ccc(O)c(C(=O)O)c1 | 3.89 |
| COc1cc2c(cc1OC)C13CCN4CC5=CCOC6CC(=O)N2C1C6C5CC43 (stereo not drawn) [Brucine] | 4.57 |
| NCCc1c[nH]c2ccccc12 [Tryptamine] | 6.92 |
| CCCSc1ccc2nc(NC(=O)OC)[nH]c2c1 [Albendazole] | 1.22 |
| Nc1nc2ccc(Cl)cc2c2nc(-c3ccco3)nn12 | 1.07 |
| O=c1[nH]c(=S)ccn1C1OC(CO)C(O)C1O (stereo not drawn) [4-Thiouridine] | 2.27 |
| CN(C)C(N)=NCCCC(N)C(=O)O (stereo not drawn) [ADMA] | 8.55 |
| NC(Cn1cccn1)C(=O)O (stereo not drawn) [3-(1-Pyrazolyl)-alanine] | 7.54 |
| Nc1c(O)cccc1C(=O)O [3-Hydroxyanthranilic acid] | 1.48 |
| NCC1CCC(C(=O)Oc2ccc(CCC(=O)O)cc2)CC1 (stereo not drawn) [Cetraxate] | 5.29 |
| NC(Cc1ccc(O)cc1)C(=O)NC(Cc1ccc(O)cc1)C(=O)NC(Cc1ccc(O)cc1)C(=O)O (stereo not drawn) [Tyr-Tyr-Tyr] | 7.09 |
| Oc1cc(O)c2c(c1)OC(c1cc(O)c(O)c(O)c1)C(O)C2 (stereo not drawn) [Epigallocatechin] | 10.2 |
| CC12CCC3C(CCC4=CC(=O)CCC43C)C1CCC2=O (stereo not drawn) [Androstenedione] | 1.09 |
| NC(Cc1ccc(O)c(O)c1)C(=O)O (stereo not drawn) [3,4-Dihydroxyphenylalanine] | 8.31 |
| CCN(CC)C(=S)SSC(=S)N(CC)CC [Disulfiram] | 0.93 |
| CCCC(=O)O [Butanoic acid] | 10.2 |
| Cn1cncc1CC(N)C(=O)O (stereo not drawn) [3-Methylhistidine] | 9.41 |

| Compound | LC retention time [min] |
| --- | --- |
| O=c1c(-c2ccc(O)cc2)coc2cc(O)ccc12 [Daidzein] | 1.39 |
| CN(C)CCC(c1ccc(Cl)cc1)c1ccccn1 (stereo not drawn) [Chlorpheniramine] | 2.54 |
| NC(CC(=O)O)C(=O)NC(Cc1ccccc1)C(=O)O (stereo not drawn) [Asp-Phe] | 8.14 |
| O=C1CCCCC1=O [1,2-Cyclohexanedione] | 5.77 |
| CNCCc1cnc[nH]1 [N-alpha-methylhistamine] | 7.48 |
| O=c1cnn(C2OC(CO)C(O)C2O)c(=O)[nH]1 (stereo not drawn) [6-Azuridine] | 4.31 |
| Nc1ncnc2c1ncn2C1CC2OP(=O)(O)OCC2O1 (stereo not drawn) [3',5'-Cyclic dAMP] | 7.29 |
| CC12CC(=O)C3C(CCC4=CC(=O)CCC43C)C1CCC2=O (stereo not drawn) [Adrenosterone] | 1.1 |
| CN(C)CCC(c1ccc(Br)cc1)c1ccccn1 (stereo not drawn) [Dexbrompheniramine] | 2.56 |
| OCCc1c[nH]c2ccc(O)cc12 [5-Hydroxytryptophol] | 5.93 |
| NCCc1ccccc1 [Phenethylamine] | 4.87 |
| Nc1ccc(O)cc1 [4-Aminophenol] | 1.34 |
| COc1ccc(Cc2nccc3cc(OC)c(OC)cc23)cc1OC [Papaverine] | 1.54 |
| COc1cn(C2OC(CO)C(O)C2O)c(=O)[nH]c1=O (stereo not drawn) [5-Methoxyuridine] | 4.72 |
| Cc1ncc2n1-c1ccc(Cl)cc1C(c1ccccc1F)=NC2 [Midazolam] | 1.29 |
| CN(C)CCOC(c1ccccc1)c1ccccc1 [Diphenhydramine] | 2.15 |
| CNC[C@H](N)C(=O)O [beta-N-Methylaminoalanine] | 9.32 |
| O=CC=Cc1ccccc1 [Cinnamaldehyde] | 9.18 |
| O=c1cc[nH]c2ccccc12 [4-Hydroxyquinoline] | 1.69 |
| O=C(O)Cc1c[nH]c2ccccc12 [3-Indoleacetic acid] | 1.33 |
| CC(C)CC(NC(=O)C(O)C(N)Cc1ccccc1)C(=O)O (stereo not drawn) [Bestatin] | 5.98 |
| COCc1c(C(C)C)nc(C(C)C)c(C=CC(O)CC(O)CC(=O)O)c1-c1ccc(F)cc1 (stereo not drawn) [Cerivastatin] | 1.18 |

Now from value to compound:

| LC retention time [min] | Compound |
| --- | --- |
| 2.3 | CC(=O)N1CCCCCC1=O [N-Acetylcaprolactam] |
| 1.01 | CSc1nc2cc(Oc3cccc(Cl)c3Cl)c(Cl)cc2[nH]1 [Triclabendazole] |
| 2.74 | CNC1CCC(c2ccc(Cl)c(Cl)c2)c2ccccc21 (stereo not drawn) [Sertraline] |
| 6.98 | NCCCCNCCCN [Spermidine] |
| 8.31 | CC(=O)NC(CCCN)C(=O)O [N-alpha-Acetyl-L-ornithine] |
| 2.29 | CC(=O)NC(CC(C)C)C(=O)O (stereo not drawn) [N-Acetylleucine] |
| 1.43 | COC(=O)c1cc(O)c(O)c(O)c1 [Methylgallate] |
| 9.61 | O=P(O)(O)OC1OC(CO)C(O)C(O)C1O (stereo not drawn) [Glucose-1-phosphate] |
| 8.6 | O=C(O)C1CC(O)CN1C(=O)C1CCCN1 (stereo not drawn) [Proline-hydroxyproline] |
| 9.58 | NC(CCSSCCC(N)C(=O)O)C(=O)O (stereo not drawn) [Homocystine] |
| 2.05 | CCCCN1CCCC1CNC(=O)c1cc(C#N)c2ccccc2c1OC (stereo not drawn) [Nafadotride] |
| 5.33 | O=c1cc(-c2ccc(O)cc2)oc2c(C3OC(CO)C(O)C(O)C3O)c(O)cc(O)c12 (stereo not drawn) [Vitexin] |
| 1.15 | CC(=O)NCC1CN(c2ccc(N3CCOCC3)c(F)c2)C(=O)O1 (stereo not drawn) [Linezolide] |
| 2.95 | c1ccc(C2CN3CCSC3=N2)cc1 (stereo not drawn) [Levamisole] |
| 2.56 | CC12CCC(=O)C=C1CCC1C2C(O)CC2(C)C1CCC2(O)C(=O)CO (stereo not drawn) [Hydrocortisone] |
| 1.04 | CCS(=O)(=O)CCn1c([N+](=O)[O-])cnc1C [Tinidazole] |
| 1.32 | COc1cc2c(=O)c(-c3ccc(O)cc3)coc2cc1O [Glycitein] |
| 2.31 | O=C(CCCN1CCC(O)(c2ccc(Cl)cc2)CC1)c1ccc(F)cc1 [Haloperidol] |
| 1.4 | O=c1c(O)c(-c2ccc(O)cc2)oc2cc(O)cc(O)c12 [Kaempferol] |
| 1.7 | COc1ccc(CN2CCN(C(c3ccc(F)cc3)c3ccc(F)cc3)CC2)c(OC)c1OC [Lomerizine] |
| 7.92 | Nc1nc2c(c(=O)[nH]1)N(C=O)C(CNc1ccc(C(=O)NC(CCC(=O)O)C(=O)O)cc1)CN2 (stereo not drawn) [Folinic acid] |
| 2.9 | O=C(O)COCCN1CCN(C(c2ccccc2)c2ccc(Cl)cc2)CC1 (stereo not drawn) [Levocetirizine] |
| 6.12 | CC(CCC(=O)NCCS(=O)(=O)O)C1CCC2C3C(O)CC4CC(O)CCC4(C)C3CC(O)C12C (stereo not drawn) [Taurocholic acid] |
| 1.81 | CC(C)=CCNc1ncnc2nc[nH]c12 [Isopentenyladenine] |
| 6.01 | CN(CCO)CC(O)Cn1cnc2c1c(=O)n(C)c(=O)n2C (stereo not drawn) [Xanthinol] |

| LC retention time [min] | Compound |
| --- | --- |
| 1.19 | CCCCCCCCC=CCCCCCCCC(=O)OCC(O)CO (stereo not drawn) [Monoolein] |
| 4.74 | COc1ccc(-c2oc3c(CC=C(C)C)c(OC4OC(CO)C(O)C(O)C4O)cc(O)c3c(=O)c2OC2OC(C)C(O)C(O)C2O)cc1 (stereo not drawn) [Icarin] |
| 6.92 | NC(Cc1c[nH]c2ccccc12)C(=O)O (stereo not drawn) [Tryptophan] |
| 9.23 | NCCOP(=O)(O)O [O-Phosphocolamine] |
| 1.97 | CCN(CC)CC(=O)Nc1c(C)cccc1C [Lidocaine] |
| 4.37 | CCN1CCCC1CNC(=O)c1cc(S(N)(=O)=O)ccc1OC (stereo not drawn) [Levosulpiride] |
| 9.85 | NC(COP(=O)(O)O)C(=O)O (stereo not drawn) [O-Phosphoserine] |
| 2.56 | CN1CCN(CCCN2c3ccccc3Sc3ccc(Cl)cc32)CC1 [Prochlorperazine] |
| 1.01 | Cc1onc(-c2ccccc2)c1-c1ccc(S(N)(=O)=O)cc1 [Valdecoxib] |
| 8.86 | CC(C)CC(N)C(=O)NC(CCCN=C(N)N)C(=O)O (stereo not drawn) [Leu-Arg] |
| 8.29 | NCCc1cnc[nH]1 [Histamine] |
| 1.17 | O=C1N(c2ccccc2)c2ccccc2C1(Cc1ccncc1)Cc1ccncc1 [Linopirdine] |
| 9.34 | NC(N)=NCCCCC(N)C(=O)O (stereo not drawn) [Homoarginine] |
| 4.47 | COc1cc(-c2[o+]c3cc(O)cc(O)c3cc2OC2OC(CO)C(O)C(O)C2O)cc(O)c1O (stereo not drawn) [Petunidin-3-glucoside] |
| 0.98 | COc1cc(C=Cc2ccc(O)cc2)cc(OC)c1 [Pterostilbene] |
| 1.12 | NC(=O)C=CC(=O)O [Maleamic acid] |
| 7.32 | CC(C)CC(N)C(=O)N1CCCC1C(=O)O (stereo not drawn) [Leu-Pro] |
| 1.8 | CCC(C)C(=O)OC1CC(O)C=C2C=CC(C)C(CCC(O)CC(O)CC(=O)O)C21 (stereo not drawn) [Pravastatin] |
| 5.53 | CC(=O)OC1CC2CCC3C(CCC4(C)C3CC([N+]3(C)CCCCC3)C4OC(C)=O)C2(C)CC1N1CCCCC1 (stereo not drawn) [Vercuronium] |
| 1.43 | CC(=O)NCCc1c[nH]c2ccc(O)cc12 [N-Acetyl-5-hydroxytryptamine] |
| 7.11 | CN1CCCC1C(=O)O (stereo not drawn) [N-Methylproline] |
| 10.3 | CC(NC(CCCN=C(N)N)C(=O)O)C(=O)O (stereo not drawn) [Octopine] |
| 3.86 | Nc1c2c(nc3ccccc13)CCCC2 [Tacrine] |
| 5.34 | CN1CCCC1c1cccnc1 (stereo not drawn) [Nicotine] |
